{"source": "patent US10077238B2", "about": "“Small molecule LFA-1 inhibitors” (ALLOCYTE PHARMACEUTICALS AG, priority 2014, dated 2018)", "biological_target": "T1, LFA-1 (Homo sapiens, UniProt P20701)", "T1 construct": "endogenous in cells; host or cells: Jurkat cells", "T1 sequence (P20701 26-1170)": "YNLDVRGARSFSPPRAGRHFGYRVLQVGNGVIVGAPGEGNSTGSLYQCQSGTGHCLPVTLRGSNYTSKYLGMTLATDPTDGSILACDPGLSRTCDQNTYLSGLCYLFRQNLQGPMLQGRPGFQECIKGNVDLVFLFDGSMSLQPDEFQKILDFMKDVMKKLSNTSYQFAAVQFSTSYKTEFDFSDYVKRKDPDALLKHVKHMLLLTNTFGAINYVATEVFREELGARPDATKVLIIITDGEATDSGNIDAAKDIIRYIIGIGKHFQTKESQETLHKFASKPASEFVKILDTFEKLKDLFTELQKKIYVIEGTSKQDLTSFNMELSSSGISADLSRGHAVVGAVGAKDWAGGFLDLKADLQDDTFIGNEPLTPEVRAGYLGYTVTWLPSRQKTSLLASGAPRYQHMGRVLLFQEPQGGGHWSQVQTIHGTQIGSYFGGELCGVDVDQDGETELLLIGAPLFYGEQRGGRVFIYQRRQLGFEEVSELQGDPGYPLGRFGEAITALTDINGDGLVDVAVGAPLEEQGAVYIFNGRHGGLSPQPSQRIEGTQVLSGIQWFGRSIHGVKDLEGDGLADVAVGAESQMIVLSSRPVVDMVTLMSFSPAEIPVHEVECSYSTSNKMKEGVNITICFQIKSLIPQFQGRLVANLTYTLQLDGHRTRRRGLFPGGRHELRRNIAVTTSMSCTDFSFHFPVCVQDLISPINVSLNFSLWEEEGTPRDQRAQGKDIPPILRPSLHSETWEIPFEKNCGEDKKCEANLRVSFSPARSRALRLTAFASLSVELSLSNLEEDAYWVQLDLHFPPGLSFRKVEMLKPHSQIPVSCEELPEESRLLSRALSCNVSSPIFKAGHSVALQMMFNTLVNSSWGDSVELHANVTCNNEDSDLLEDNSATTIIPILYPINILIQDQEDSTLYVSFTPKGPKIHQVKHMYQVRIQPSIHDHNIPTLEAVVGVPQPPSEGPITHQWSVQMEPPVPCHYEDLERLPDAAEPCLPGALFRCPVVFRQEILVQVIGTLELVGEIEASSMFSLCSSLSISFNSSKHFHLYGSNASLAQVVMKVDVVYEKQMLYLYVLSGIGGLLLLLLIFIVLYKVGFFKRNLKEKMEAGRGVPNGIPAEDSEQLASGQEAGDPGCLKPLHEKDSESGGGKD", "T1 sequence (P05107 23-769 partner)": "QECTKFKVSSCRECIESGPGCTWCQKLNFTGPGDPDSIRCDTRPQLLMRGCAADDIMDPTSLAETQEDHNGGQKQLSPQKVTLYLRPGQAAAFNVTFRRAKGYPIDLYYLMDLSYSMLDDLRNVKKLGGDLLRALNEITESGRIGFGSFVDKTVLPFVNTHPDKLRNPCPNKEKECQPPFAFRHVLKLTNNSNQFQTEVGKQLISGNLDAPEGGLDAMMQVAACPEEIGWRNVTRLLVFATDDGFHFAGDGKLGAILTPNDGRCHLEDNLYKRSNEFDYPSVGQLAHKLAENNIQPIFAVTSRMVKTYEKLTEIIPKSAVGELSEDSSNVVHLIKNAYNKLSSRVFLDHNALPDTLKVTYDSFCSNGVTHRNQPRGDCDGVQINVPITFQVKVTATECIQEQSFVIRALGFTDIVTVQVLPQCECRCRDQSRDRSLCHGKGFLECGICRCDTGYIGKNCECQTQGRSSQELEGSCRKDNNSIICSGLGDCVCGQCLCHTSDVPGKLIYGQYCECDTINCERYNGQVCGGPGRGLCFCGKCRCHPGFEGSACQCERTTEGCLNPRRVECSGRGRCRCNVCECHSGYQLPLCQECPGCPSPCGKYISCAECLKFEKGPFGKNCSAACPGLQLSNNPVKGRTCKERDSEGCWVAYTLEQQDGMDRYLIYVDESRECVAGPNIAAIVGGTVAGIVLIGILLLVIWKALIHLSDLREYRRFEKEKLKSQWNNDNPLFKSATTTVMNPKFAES", "assay": "V well cell adhesion assay, LFA-1-mediated Jurkat cell binding to ICAM-1 (LFA-1 adhesion)", "assay_type": "cell-based", "settings": "Jurkat cells on ICAM-1/Fc; mean ±SD of ≥3 independent experiments in triplicates or single experiments in triplicates", "protocol": "Cell-Based Assay to Determine the Effect of the Compounds on LFA-1-Mediated Cell Adhesion (LFA-1 Adhesion)\nPurpose of the Assay: The V well cell adhesion assay measures the ability of the compounds to interfere with LFA-1-mediated binding to ICAM-1 at cellular level. The assay has been successfully used in the past to identify and characterize small molecules LFA-1 inhibitors.\nExperimental Protocol: The adhesion assay was performed in Vbottom 96-well plates as described previously [Weitz-Schmidt 2012]. Briefly, the plates were coated with anti-human IgG mAb diluted in coating buffer (20 mM Tris containing 150 mM NaCl, pH 8) (1 μg/mL) and incubated overnight at 4° C. The plates were flicked out and blocked with blocking buffer (50 mM Tris base, 150 mM NaCl, 1.5% BSA (w/v), pH 7.2) at 37° C. for 90 min. Then human recombinant ICAM-1/Fc (R&D Systems) diluted in coating buffer (0.3 μg/mL) was added to each well. The plates were incubated at 37° C. for 90 min and washed with binding buffer (50 mM Tris base, 150 mM NaCl, 1.5% BSA (w/v), 2 mM MgCl2, 2 mM MnCl2, 5 mM D-glucose monohydrate, pH 7.2-7.4) to remove unbound ligand.\nJurkat cells were cultured under standard conditions as recommended by the American Type Culture collection (ATCC). The cells were fluorescently labelled with BCECF-AM in PBS (1 μg/mL) at 37° C. for 20 min in the dark, centrifuged and washed with PBS. The test compounds were dissolved in DMSO at 10 mM and serially pre-diluted in DMSO (100%) to avoid precipitation, before performing final dilution steps in binding buffer.\nThe labelled Jurkat cells were re-suspended in binding buffer and test compounds or solvent control were added. The DMSO concentration was kept constant in all samples (1% DMSO as final assay concentration). After 40 min at 37° C. (LFA-1 activation and compound pre-incubation step) the cell suspension (3×10^5 cells/mL in binding buffer) was pipetted up and down and transferred to the ligand-coated microtiter V well plates (30 000 cells/well). The plates were centrifuged for 4 min at room temperature (rt) at 1000 rpm (Centrifuge Eppendorf 5810 R), setting the brake off Non-adherent cells that accumulated in the center of the Vbottom were quantified using a fluorescence reader with the filter sets allowing excitation at 485 nm and quantification of emission at 535 nm. The determination of the half maximal inhibitory concentration (IC50) of the compounds was calculated using the software GraphPad Prism 6.", "note": "Several values for one entry are separate records, joined by “and”; a condition that tells them apart may be missing. Identical values can stand only once."}
{"smiles": "CC12C(=O)N(c3cc(Cl)cc(Cl)c3)C(=O)C1C2(c1ccncc1)c1ccc(C#N)cc1", "note": "(single isomer, unassigned) [4z or 4′z diastereomer II (racemate)]", "values": [{"measurement": "IC50", "result": 71, "unit": "nM"}]}
{"smiles": "C[C@]12C(=O)N(c3cc(Cl)cc(Cl)c3)C(=O)[C@H]1[C@@]2(C(=O)N1CCOCC1)c1ccc(C(F)(F)F)cc1", "note": "(racemic) [4′l (racemate), rac-(1S,5R,6R)-3-(3,5-Dichlorophenyl)-1-methyl-6-[(morpholin-4-yl)carbonyl]-6-[4-(trifluoromethyl)phenyl]-3-azabicyclo[3.1.0]hexane-2,4-dione]", "values": [{"measurement": "IC50", "result": "> 3000", "unit": "nM"}]}
{"smiles": "N#Cc1ccc(C2(c3ccncc3)C3C(=O)N(c4cc(Cl)cc(Cl)c4)C(=O)C32)cc1", "note": "(single isomer, unassigned) [4y or 4′y diastereomer II, rel-4-[(1 S, 5R, 6s)- and rel-4-[(1 S, 5R, 6r)-3-(3,5-Dichlorophenyl)-2,4-dioxo-6-(pyridin-4-yl)-3-azabicyclo[3.1.0]hexan-6-yl]benzonitrile]", "values": [{"measurement": "IC50", "result": "≥ 1000", "unit": "nM"}]}
{"smiles": "C[C@]12C(=O)N(c3cc(Cl)cc(Cl)c3)C(=O)[C@H]1[C@@]2(C(=O)N1CCOCC1)c1ccc(C#N)cc1", "note": "(racemic) [4′n (racemate), rac-4-[(1S,5R,6R)-3-(3,5-Dichlorophenyl)-1-methyl-6-[(morpholin-4-yl)carbonyl]-2,4-dioxo-3-azabicyclo[3.1.0]hexan-6-yl]benzonitrile]", "values": [{"measurement": "IC50", "result": 636, "unit": "nM"}]}
{"smiles": "C[C@]12C(=O)N(c3cc(Cl)cc(Cl)c3)C(=O)[C@H]1[C@@]2(C(=O)N1CCOCC1)c1ccc(OC(F)(F)F)cc1", "note": "(racemic) [4′m (racemate), rac-(1S,5R,6R)-3-(3,5-Dichlorophenyl)-1-methyl-6-[(morpholin-4-yl)carbonyl]-6-[4-(trifluoromethoxy)phenyl]-3-azabicyclo[3.1.0]hexane-2,4-dione]", "values": [{"measurement": "IC50", "result": 405, "unit": "nM"}]}
{"smiles": "CC12C(=O)N(c3cc(Cl)cc(Cl)c3)C(=O)C1C2(c1ccccc1)c1ccncc1", "note": "(single isomer, unassigned) [4 o or 4′o diastereomer I (racemate), rac-(1 S, 5S, 6S)- and rac-(1 S, 5S, 6R)-3-(3,5-Dichlorophenyl)-1-methyl-6-phenyl-6-(pyridin-4-yl)-3-azabicyclo[3.1.0]hexane-2,4-dione]", "values": [{"measurement": "IC50", "result": "> 3000", "unit": "nM"}]}
{"smiles": "CC12C(=O)N(c3cc(Cl)cc(Cl)c3)C(=O)C1C2(c1ccccc1)c1ccco1", "note": "(single isomer, unassigned) [4t or 4′t Diastereomer I (racemate), rac-(1 S, 5S, 6R)- and rac-(1 S, 5S, 6S)-3-(3,5-Dichlorophenyl)-6-(furan-2-yl)-1-methyl-6-phenyl-3-azabicyclo[3.1.0]hexane-2,4-dione]", "values": [{"measurement": "IC50", "result": 870, "unit": "nM"}]}
{"smiles": "N#Cc1ccc(C2(c3ccc(OC(F)(F)F)cc3)C3C(=O)N(c4cc(Cl)cc(Cl)c4)C(=O)C32)cc1", "note": "(single isomer, unassigned) [4r or 4′r diastereomer II]", "values": [{"measurement": "IC50", "result": 132, "unit": "nM"}]}
{"smiles": "CC12C(=O)N(c3cc(Cl)cc(Cl)c3)C(=O)C1C2(c1ccccc1)c1ccccc1", "note": "(single isomer, unassigned) [4b enantiomer B]", "values": [{"measurement": "IC50", "result": "> 10000", "unit": "nM"}]}
{"smiles": "C[C@]12C(=O)N(c3cc(Cl)cc(Cl)c3)C(=O)[C@H]1[C@@]2(C(=O)N1CCOCC1)c1ccc(Br)cc1", "note": "(racemic) [4′k (racemate), rac-(1S,5R,6R)-6-(4-Bromophenyl)-3-(3,5-dichlorophenyl)-1-methyl-6-[(morpholin-4-yl)carbonyl]-3-azabicyclo[3.1.0]hexane-2,4-dione]", "values": [{"measurement": "IC50", "result": 3470, "unit": "nM"}]}
{"smiles": "N#Cc1ccc(C2(c3ccncc3)C3C(=O)N(c4cc(Cl)cc(Cl)c4)C(=O)C32)cc1", "note": "(single isomer, unassigned) [4y or 4′y diastereomer I, rel-4-[(1 S, 5R, 6s)- and rel-4-[(1 S, 5R, 6r)-3-(3,5-Dichlorophenyl)-2,4-dioxo-6-(pyridin-4-yl)-3-azabicyclo[3.1.0]hexan-6-yl]benzonitrile]", "values": [{"measurement": "IC50", "result": "> 1000", "unit": "nM"}]}
{"smiles": "CC12C(=O)N(c3cc(Cl)cc(Cl)c3)C(=O)C1C2(c1ccccc1)c1ccncc1", "note": "(single isomer, unassigned) [4 o or 4′o diastereomer II (racemate), rac-(1 S, 5S, 6S)- and rac-(1 S, 5S, 6R)-3-(3,5-Dichlorophenyl)-1-methyl-6-phenyl-6-(pyridin-4-yl)-3-azabicyclo[3.1.0]hexane-2,4-dione]", "values": [{"measurement": "IC50", "result": 458, "unit": "nM"}]}
{"smiles": "N#Cc1ccc(C2(c3ccc(OC(F)(F)F)cc3)C3C(=O)N(c4cc(Cl)cc(Cl)c4)C(=O)C32)cc1", "note": "(single isomer, unassigned) [4r or 4′r diastereomer I]", "values": [{"measurement": "IC50", "result": 963, "unit": "nM"}]}
{"smiles": "C[C@]12C(=O)N(c3cc(Cl)cc(Cl)c3)C(=O)[C@H]1C2(c1ccc(OC(F)(F)F)cc1)c1ccc(OC(F)(F)F)cc1", "note": "(racemic) [4q (racemate), rac-(1S,5S)-3-(3,5-Dichlorophenyl)-1-methyl-6,6-bis[4-(trifluoromethoxy)phenyl]-3-azabicyclo[3.1.0]hexane-2,4-dione]", "values": [{"measurement": "IC50", "result": 101, "unit": "nM"}]}
{"smiles": "CC12C(=O)N(c3cc(Cl)cc(Cl)c3)C(=O)C1C2(c1ccncc1)c1ccc(C#N)cc1", "note": "(single isomer, unassigned) [4z or 4′z diastereomer I (racemate)]", "values": [{"measurement": "IC50", "result": "> 1000", "unit": "nM"}]}
{"smiles": "CC12C(=O)N(c3cc(Cl)cc(Cl)c3)C(=O)C1C2(c1ccc(C#N)cc1)c1ccc(OC(F)(F)F)cc1", "note": "(single isomer, unassigned) [4i/4′i diastereomer I (racemate), rac-4-[(1 S, 5S, 6S)- and rac-4-(1 S, 5S, 6R)-3-(3,5-Dichlorophenyl)-1-methyl-2,4-dioxo-6-[4-(trifluoro-methoxy)-phenyl]-3-azabicyclo[3.1.0]hexan-6-yl]benzonitrile]", "values": [{"measurement": "IC50", "result": "562 nM and 530 nM"}]}
{"smiles": "O=C1[C@@H]2[C@H](C(=O)N1c1cc(Cl)cc(Cl)c1)C2(c1ccccc1)c1ccccc1", "note": "[Compound 4a, 3-(3,5-Dichlorophenyl)-6,6-diphenyl-3-azabicyclo[3.1.0]hexane-2,4-dione]", "values": [{"measurement": "IC50", "result": 8480, "unit": "nM"}]}
{"smiles": "O=C1[C@@H]2[C@H](C(=O)N1c1cc(Cl)cc(Cl)c1)[C@@H]2c1ccc(Br)cc1", "note": "[4′e, rel-(1R,5S,6r)-6-(4-Bromophenyl)-3-(3,5-dichloro-phenyl)-3-azabicyclo[3.1.0]hexane-2,4-dione]", "values": [{"measurement": "IC50", "result": 3330, "unit": "nM"}]}
{"smiles": "COc1ccc(C2(c3ccc(Cl)cc3)C3C(=O)N(c4cc(Cl)cc(Cl)c4)C(=O)C32C)cc1", "note": "(single isomer, unassigned) [4s or 4′s diastereomer I (racemate), rac-(1 S, 5S, 6R)- and rac-(1 S, 5S, 6S)-6-(4-Chlorophenyl)-3-(3,5-dichlorophenyl)-6-(4-methoxyphenyl)-1-methyl-3-azabicyclo[3.1.0]hexane-2,4-dione]", "values": [{"measurement": "IC50", "result": 1830, "unit": "nM"}]}
{"smiles": "COc1ccc(C2(c3ccc(Cl)cc3)C3C(=O)N(c4cc(Cl)cc(Cl)c4)C(=O)C32C)cc1", "note": "(single isomer, unassigned) [4s or 4′s diastereomer II (racemate), rac-(1 S, 5S, 6R)- and rac-(1 S, 5S, 6S)-6-(4-Chlorophenyl)-3-(3,5-dichlorophenyl)-6-(4-methoxyphenyl)-1-methyl-3-azabicyclo[3.1.0]hexane-2,4-dione]", "values": [{"measurement": "IC50", "result": 153, "unit": "nM"}]}
{"smiles": "O=C1[C@@H]2[C@H](C(=O)N1c1cc(Cl)cc(Cl)c1)[C@@H]2c1ccccc1", "note": "[4′c, rel-(1R,5S,6r)-3-(3,5-Dichlorophenyl)-6-phenyl-3-azabicyclo[3.1.0]hexane-2,4-dione]", "values": [{"measurement": "IC50", "result": 1590, "unit": "nM"}]}
